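Results reflect a 48-hour exposure of cells in 96-well plates to compound at five concentrations. TGI is the concentration that stops growth completely.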
Columns and labels:
Experiment in all cases: growth of human tumour cells (NCI), 48 h
786-0 renal = test system: 786-0 renal
A549 NSCLC = test system: A549 NSCLC
ACHN renal = test system: ACHN renal
CAKI-1 renal = test system: CAKI-1 renal
COLO 205 colon = test system: COLO 205 colon
DLD-1 colon = test system: DLD-1 colon
DMS 114 small cell lung = test system: DMS 114 small cell lung
DMS 273 small cell lung = test system: DMS 273 small cell lung
EKVX NSCLC = test system: EKVX NSCLC
HCT-116 colon = test system: HCT-116 colon
HCT-15 colon = test system: HCT-15 colon
HOP-92 NSCLC = test system: HOP-92 NSCLC
HT29 colon = test system: HT29 colon
IGROV1 ovarian = test system: IGROV1 ovarian
K-562 leukemia = test system: K-562 leukemia
KM12 colon = test system: KM12 colon
KM20L2 colon = test system: KM20L2 colon
LXFL 529 NSCLC = test system: LXFL 529 NSCLC
M14 melanoma = test system: M14 melanoma
M19-MEL melanoma = test system: M19-MEL melanoma
MALME-3M melanoma = test system: MALME-3M melanoma
MOLT-4 leukemia = test system: MOLT-4 leukemia
NCI-H226 lung = test system: NCI-H226 lung
NCI-H23 lung = test system: NCI-H23 lung
NCI-H460 lung = test system: NCI-H460 lung
OVCAR-3 ovarian = test system: OVCAR-3 ovarian
OVCAR-4 ovarian = test system: OVCAR-4 ovarian
OVCAR-5 ovarian = test system: OVCAR-5 ovarian
OVCAR-8 ovarian = test system: OVCAR-8 ovarian
RPMI-8226 leukemia = test system: RPMI-8226 leukemia
RXF 393 renal = test system: RXF 393 renal
SF-295 CNS = test system: SF-295 CNS
SF-539 CNS = test system: SF-539 CNS
SK-MEL-2 melanoma = test system: SK-MEL-2 melanoma
SK-MEL-28 melanoma = test system: SK-MEL-28 melanoma
SK-MEL-5 melanoma = test system: SK-MEL-5 melanoma
SK-OV-3 ovarian = test system: SK-OV-3 ovarian
SN12C renal = test system: SN12C renal
SNB-75 CNS = test system: SNB-75 CNS
SNB-78 CNS = test system: SNB-78 CNS
SR leukemia = test system: SR leukemia
SW-620 colon = test system: SW-620 colon
TK-10 renal = test system: TK-10 renal
U251 CNS = test system: U251 CNS
UACC-257 melanoma = test system: UACC-257 melanoma
UACC-62 melanoma = test system: UACC-62 melanoma
XF 498 CNS = test system: XF 498 CNS
A498 renal = test system: A498 renal
CCRF-CEM leukemia = test system: CCRF-CEM leukemia
HCC-2998 colon = test system: HCC-2998 colon
HL-60(TB) leukemia = test system: HL-60(TB) leukemia
HOP-62 NSCLC = test system: HOP-62 NSCLC
LOX IMVI melanoma = test system: LOX IMVI melanoma
NCI-H522 lung = test system: NCI-H522 lung
SNB-19 CNS = test system: SNB-19 CNS
UO-31 renal = test system: UO-31 renal
SF-268 CNS = test system: SF-268 CNS

Measured: TGI

COC(=O)c1cc(OC(C)=O)c2c(OC)ccc(OC)c2c1
not listed: A498 renal | CCRF-CEM leukemia | HCC-2998 colon | HL-60(TB) leukemia | HOP-62 NSCLC | LOX IMVI melanoma | NCI-H522 lung | SNB-19 CNS | UO-31 renal | SF-268 CNS
> 100 µM: all other assays above

COc1ccc(C2C(Cl)C(=O)N2NC(=O)c2ccc(N)cc2)cc1 (centres undefined)
not listed: RXF 393 renal | SR leukemia | SF-268 CNS
> 100 µM: all other assays above

[N-]=[N+]=Nc1ccccc1Oc1ccccc1
not listed: HOP-92 NSCLC | MALME-3M melanoma | RXF 393 renal | CCRF-CEM leukemia
> 100 µM: all other assays above

Reference: PubChem BioAssay (NCI)
